ChEMBL document CHEMBL3784991, “Design, synthesis and evaluation of novel HIV-1 NNRTIs with dual structural conformations targeting the entrance channel of the NNRTI binding pocket” (Eur J Med Chem, 2016)
Counter-ions that a name gives are not always drawn.

How the values were obtained:
[1] = Selectivity index, ratio of CC50 for mock infected human MT4 cells to EC50 for HIV1 3B infected in human MT4 cells; assay type: toxicity, cell-based; details: read-out: Ratio CC50/EC50
[2] = system: Human immunodeficiency virus 2; test: Antiviral activity against HIV2 ROD infected in human MT4 cells assessed as cell viability after 4 days by MTT assay; assay type: functional, organism-based; details: Human immunodeficiency virus 2, ISOLATE ROD, MT4, 96 h
[3] = Selectivity index, ratio of CC50 for mock infected human MT4 cells to EC50 for HIV2 ROD infected in human MT4 cells; assay type: toxicity, cell-based; details: read-out: Ratio CC50/EC50
[4] = system: Human immunodeficiency virus 1; test: Antiviral activity against wild type HIV1 3B infected in human MT4 cells assessed as cell viability after 4 days by MTT assay; assay type: functional, organism-based; details: Human immunodeficiency virus 1, 3B, MT4, 96 h
[5] = Cytotoxicity against mock infected human MT4 cells after 4 days by MTT assay; assay type: cell-based
[6] = system: Human immunodeficiency virus 1; test: Antiviral activity against HIV1 RES056 harboring reverse transcriptase K103N/[…] double mutant infected in human MT4 cells assessed as cell viability after 4 days by MTT assay; assay type: functional, organism-based; details: Human immunodeficiency virus 1, RES056, MT4, 96 h
[7] = Selectivity index, ratio of CC50 for mock infected human MT4 cells to EC50 for HIV1 RES056 harboring reverse transcriptase K103N/[…] double mutant infected in human MT4 cells; assay type: toxicity, cell-based; details: read-out: Ratio CC50/EC50
[8] = molecular target: Human immunodeficiency virus type 1 reverse transcriptase (Human immunodeficiency virus 1, UniProt Q72547); test: Inhibition of wild type HIV1 Reverse transcriptase assessed as reduction of biotin deoxyuridine triphosphate incorporation into the wild type HIV1 reverse transcriptase after 1 hr by ELISA
[9] = system: Human immunodeficiency virus 1; test: Potency index, ratio of nevirapine EC50 to compound EC50 for HIV1 3B infected in human MT4 cells; assay type: functional

| SMILES | selectivity ratio [1] | EC50 [2] [µM] | selectivity ratio [3] | EC50 [4] [nM] | CC50 at 96 h [5] [µM] | EC50 [6] [nM] | selectivity ratio [7] | IC50 [8] [nM] | Ratio EC50 [9] |
| --- | --- | --- | --- | --- | --- | --- | --- | --- | --- |
| Cc1cc(C#N)cc(C)c1Oc1cc(Nc2ccc(Cl)cc2)nc(Nc2cccc(C#N)c2)n1 | < 1 | > 3.15 | < 1 | > 3150 | 3.15 | – | – | – | – |
| Cc1ccnc2c1NC(=O)c1cccnc1N2C1CC1 [NEVIRAPINE] | – | – | – | – | > 15 | > 15000 | – | – | – |
| O=C1Nc2ccc(Cl)cc2[C@@](C#CC2CC2)(C(F)(F)F)O1 [EFAVIRENZ] | > 1210 | – | – | – | > 6.34 | 225 | > 28 | – | – |
| Cc1cccc(Nc2cc(Oc3c(C)cc(C#N)cc3C)nc(Nc3cccc(C#N)c3)n2)c1 | < 1 | > 2.89 | < 1 | > 2890 | 2.89 | – | – | – | – |
| Cc1cc(C)c(Oc2cc(Nc3ccc(Cl)cc3)nc(Nc3ccc(C#N)cc3)n2)c(C)c1 | ≤ 4 | > 6.67 | < 1 | ≥ 1620 | 6.68 | > 6670 | < 1 | – | – |
| Cc1cc(C)c(Oc2cc(Nc3ccc(C#N)cc3)nc(Nc3ccc(C#N)cc3)n2)c(C)c1 | 8 | > 5.98 | < 1 | 780 | 5.98 | > 5980 | < 1 | – | – |
| Cc1cc(C)c(Oc2cc(Nc3ccc(C#N)cc3)nc(Nc3cccc(C#N)c3)n2)c(C)c1 | < 1 | > 5.38 | < 1 | > 5380 | 5.38 | – | – | – | – |
| Nc1ccn([C@H]2CS[C@@H](CO)O2)c(=O)n1 | > 34 | 9.9 | > 9 | 2530 | > 87.2 | – | – | – | – |
| Cc1cc(C#N)cc(C)c1Oc1nc(Nc2ccc(C#N)cc2)nc(N)c1Br [ETRAVIRINE] | – | – | – | 3.9 | 2.16 | 34 | – | – | – |
| O=c1[nH]cnc2c1ncn2[C@H]1CC[C@@H](CO)O1 [DIDANOSINE] | > 3 | 82.1 | > 3 | 76000 | > 212 | – | – | – | – |
| Cc1cc(C)c(Oc2cc(Nc3ccc(Cl)cc3)nc(Nc3cccc(C#N)c3)n2)c(C)c1 | < 1 | > 12.6 | < 1 | > 12600 | 12 | – | – | – | – |
| Cc1ccc(Nc2nc(Nc3ccc(Cl)cc3)cc(Oc3c(C)cc(C)cc3C)n2)cc1 | < 1 | > 48.2 | < 1 | > 48200 | 48.2 | – | – | – | – |
| Cc1cn([C@H]2C[C@H](N=[N+]=[N-])[C@@H](CO)O2)c(=O)[nH]c1=O [ZIDOVUDINE] | > 1000 | 0.0082 | > 925 | – | > 7.48 | 17 | > 448 | – | – |
| Cc1ccc(Nc2nc(Nc3cccc(C)c3)cc(Oc3c(C)cc(C#N)cc3C)n2)cc1 | < 1 | > 17.4 | < 1 | > 17400 | 17.3 | – | – | – | – |
| Cc1cc(C#N)cc(C)c1Oc1cc(Nc2ccc(C#N)cc2)nc(Nc2cccc(C#N)c2)n1 | < 1 | > 2.73 | < 1 | > 2730 | 2.73 | – | – | – | – |
| Cc1cc(C#N)cc(C)c1Oc1cc(Nc2ccc(Cl)cc2)nc(Nc2ccc(C#N)cc2)n1 | 4 | > 3.28 | < 1 | 790 | 3.28 | > 3280 | < 1 | – | – |
| CC(C)Nc1cccnc1N1CCN(C(=O)c2cc3cc(NS(C)(=O)=O)ccc3[nH]2)CC1 [DELAVIRDINE MESYLATE] | 1080 | – | – | 27 | 28.2 | > 28200 | < 1 | – | – |
| Cc1ccc(Nc2nc(Nc3ccc(C#N)cc3)cc(Oc3c(C)cc(C#N)cc3C)n2)cc1 | < 1 | > 8.53 | < 1 | > 8530 | 8.53 | – | – | – | – |
| Cc1ccc(Nc2nc(Nc3ccc(C#N)cc3)cc(Oc3c(C)cc(C)cc3C)n2)cc1 | < 1 | > 27.1 | < 1 | > 27100 | 27.1 | – | – | – | – |
| Cc1ccc(Nc2nc(Nc3ccc(Cl)cc3)cc(Oc3c(C)cc(C#N)cc3C)n2)cc1 | > 9 | > 274 | 1 | 31400 | > 274 | > 274000 | 1 | – | – |
| Cc1ccc(Nc2nc(Nc3cccc(C)c3)cc(Oc3c(C)cc(C)cc3C)n2)cc1 | < 1 | > 51 | < 1 | > 51000 | 51 | – | – | – | – |
| Cc1cccc(Nc2cc(Oc3c(C)cc(C)cc3C)nc(Nc3cccc(C#N)c3)n2)c1 | < 1 | > 25.8 | < 1 | > 25800 | 25.8 | – | – | – | – |
| Cc1cccc(Nc2cc(Oc3c(C)cc(C)cc3C)nc(Nc3ccc(C#N)cc3)n2)c1 | < 1 | > 24.1 | < 1 | > 24100 | 24.1 | > 24100 | < 1 | – | – |
| Cc1cc(C#N)cc(C)c1Oc1cc(Nc2ccc(C#N)cc2)nc(Nc2ccc(C#N)cc2)n1 | 117 | > 13 | < 1 | 110 | 13 | 2180 | 2 | 72.7 | 2 |
| Cc1cccc(Nc2cc(Oc3c(C)cc(C#N)cc3C)nc(Nc3ccc(C#N)cc3)n2)c1 | 4 | > 2.96 | < 1 | 820 | 2.96 | > 2960 | < 1 | – | – |
